Data from ChEMBL document CHEMBL4020828, “Design and Syntheses of Highly Potent Teixobactin Analogues against Staphylococcus aureus, Methicillin-Resistant Staphylococcus aureus (MRSA), and Vancomycin-Resistant Enterococci (VRE) in Vitro and in Vivo” (J Med Chem, 2018).
In brackets after ≈: the same amount, converted by molar mass. Positions of bridges follow the written chain, without caps; N, C: chain ends. Non-standard residues stand in square brackets, D forms with d. Residues, ends and D or L forms follow the SMILES beside them. dNMeF = CN[C@H](Cc1ccccc1)C(=O)O

Key:
Staphylococcus aureus [1] = assay: Antibacterial activity against methicillin-resistant Staphylococcus aureus ATCC 33591 after 24 hrs; assay type: functional; details: ATCC 33591, 24 h
[2] = tested on: Staphylococcus saprophyticus; assay: Antibacterial activity against Staphylococcus saprophyticus ATCC BAA 750 after 24 hrs; assay type: functional; details: ATCC BAA 750, 24 h
[3] = tested on: Staphylococcus saprophyticus; assay: Antibacterial activity against Staphylococcus saprophyticus ATCC 15305 after 24 hrs; assay type: functional; details: ATCC 15305, 24 h
[4] = tested on: Staphylococcus saprophyticus; assay: Antibacterial activity against Staphylococcus saprophyticus ATCC 49453 after 24 hrs; assay type: functional; details: ATCC 49453, 24 h
[5] = tested on: Staphylococcus saprophyticus; assay: Antibacterial activity against Staphylococcus saprophyticus ATCC 49907 after 24 hrs; assay type: functional; details: ATCC 49907, 24 h
Enterococcus faecalis [6] = assay: Antibacterial activity against vancomycin-resistant Enterococcus faecalis isolate 1001 after 24 hrs; assay type: functional; details: isolate 1001, 24 h
Enterococcus faecalis [7] = assay: Antibacterial activity against vancomycin-resistant Enterococcus faecalis isolate 1002 after 24 hrs; assay type: functional; details: isolate 1002, 24 h
Enterococcus faecalis [8] = assay: Antibacterial activity against vancomycin-resistant Enterococcus faecalis isolate 1004 after 24 hrs; assay type: functional; details: isolate 1004, 24 h
Enterococcus faecalis [9] = assay: Antibacterial activity against vancomycin-resistant Enterococcus faecalis isolate 1008 after 24 hrs; assay type: functional; details: isolate 1008, 24 h
Enterococcus faecalis [10] = assay: Antibacterial activity against vancomycin-resistant Enterococcus faecalis ATCC 700802 after 24 hrs; assay type: functional; details: ATCC 700802, 24 h
Enterococcus faecalis [11] = assay: Antibacterial activity against vancomycin-resistant Enterococcus faecalis ATCC 29212 after 24 hrs; assay type: functional; details: ATCC 29212, 24 h
Staphylococcus aureus [12] = assay: Antibacterial activity against methicillin-resistant Staphylococcus aureus ATCC 700699 after 24 hrs; assay type: functional; details: ATCC 700699, 24 h
Staphylococcus aureus [13] = assay: Antibacterial activity against methicillin-resistant Staphylococcus aureus isolate 42412 after 24 hrs; assay type: functional; details: isolate 42412, 24 h
Staphylococcus aureus [14] = assay: Antibacterial activity against methicillin-resistant Staphylococcus aureus isolate 21455 after 24 hrs; assay type: functional; details: isolate 21455, 24 h
Staphylococcus aureus [15] = assay: Antibacterial activity against methicillin-resistant Staphylococcus aureus isolate 1003 after 24 hrs; assay type: functional; details: isolate 1003, 24 h
Staphylococcus aureus [16] = assay: Antibacterial activity against Staphylococcus aureus ATCC 29213 after 24 hrs; assay type: functional; details: ATCC 29213, 24 h
Staphylococcus aureus [17] = assay: Antibacterial activity against Staphylococcus aureus 4299 after 24 hrs; assay type: functional; details: Staphylococcus aureus, 4299, 24 h
[18] = tested on: Staphylococcus epidermidis; assay: Antibacterial activity against Staphylococcus epidermidis 12228 after 24 hrs; assay type: functional; details: Staphylococcus epidermidis, 12228, 24 h
Bacillus cereus = assay: Antibacterial activity against Bacillus cereus ATCC 11788 after 24 hrs; assay type: functional; details: ATCC 11788, 24 h
[19] = tested on: Bacillus subtilis (Bacillus subtilis); assay: Antibacterial activity against Bacillus subtilis ATCC 6633 after 24 hrs; details: ATCC 6633, 24 h

SMILES | MIC (Staphylococcus aureus [1]) | MIC [2] | MIC [3] | MIC [4] | MIC [5] | MIC (Enterococcus faecalis [6]) | MIC (Enterococcus faecalis [7]) | MIC (Enterococcus faecalis [8]) | MIC (Enterococcus faecalis [9]) | MIC (Enterococcus faecalis [10]) | MIC (Enterococcus faecalis [11]) | MIC (Staphylococcus aureus [12]) | MIC (Staphylococcus aureus [13]) | MIC (Staphylococcus aureus [14]) | MIC (Staphylococcus aureus [15]) | MIC (Staphylococcus aureus [16]) | MIC (Staphylococcus aureus [17]) | MIC [18] | MIC (Bacillus cereus) | MIC [19]
CC[C@@H](C)[C@@H](NC(=O)[C@@H](CCC(N)=O)NC(=O)[C@H](CO)NC(=O)[C@@H](NC(=O)[C@@H](Cc1ccccc1)NC)[C@@H](C)CC)C(=O)N[C@H](C(=O)N[C@@H](CO)C(=O)N[C@H]1C(=O)N[C@@H](CCCNC(=N)N)C(=O)N[C@@H]([C@@H](C)CC)C(=O)N[C@@H]([C@@H](C)CC)C(=O)O[C@H]1C)[C@@H](C)CC | 0.25 µg/mL (≈ 0.194 µM) | < 0.0625 µg/mL | < 0.0625 µg/mL | < 0.0625 µg/mL | < 0.0625 µg/mL | 1 µg/mL (≈ 0.777 µM) | 1 µg/mL (≈ 0.777 µM) | 1 µg/mL (≈ 0.777 µM) | 1 µg/mL (≈ 0.777 µM) | 1 µg/mL (≈ 0.777 µM) | 1 µg/mL (≈ 0.777 µM) | 1 µg/mL (≈ 0.777 µM) | 0.125 µg/mL (≈ 0.0972 µM) | 0.5 µg/mL (≈ 0.389 µM) | 0.5 µg/mL (≈ 0.389 µM) | 1 µg/mL (≈ 0.777 µM) | 1 µg/mL (≈ 0.777 µM) | < 0.0625 µg/mL | 0.5 µg/mL (≈ 0.389 µM) | 0.125 µg/mL (≈ 0.0972 µM)
CC[C@@H](C)[C@@H](NC(=O)[C@@H](CCC(N)=O)NC(=O)[C@H](CCCNC(=N)N)NC(=O)[C@@H](NC(=O)[C@@H](Cc1ccccc1)NC)[C@@H](C)CC)C(=O)N[C@H](C(=O)N[C@@H](CO)C(=O)N[C@H]1C(=O)N[C@@H](CCCNC(=N)N)C(=O)N[C@@H](CC(C)C)C(=O)N[C@@H]([C@@H](C)CC)C(=O)O[C@H]1C)[C@@H](C)CC (H-[dNMeF]IR[dQ][dI]IS[dT]RLI; ester 8-C) | 1 µg/mL (≈ 0.738 µM) | < 0.0625 µg/mL | < 0.0625 µg/mL | < 0.0625 µg/mL | < 0.0625 µg/mL | 0.5 µg/mL (≈ 0.369 µM) | 1 µg/mL (≈ 0.738 µM) | 0.5 µg/mL (≈ 0.369 µM) | 0.5 µg/mL (≈ 0.369 µM) | 1 µg/mL (≈ 0.738 µM) | 1 µg/mL (≈ 0.738 µM) | 1 µg/mL (≈ 0.738 µM) | 0.25 µg/mL (≈ 0.184 µM) | 1 µg/mL (≈ 0.738 µM) | 2 µg/mL (≈ 1.48 µM) | 1 µg/mL (≈ 0.738 µM) | 0.5 µg/mL (≈ 0.369 µM) | < 0.0625 µg/mL | 1 µg/mL (≈ 0.738 µM) | < 0.0625 µg/mL
CC[C@@H](C)[C@@H](NC(=O)[C@@H](CCC(N)=O)NC(=O)[C@H](CCCNC(=N)N)NC(=O)[C@@H](NC(=O)[C@@H](Cc1ccccc1)NC)[C@@H](C)CC)C(=O)N[C@H](C(=O)N[C@@H](CO)C(=O)N[C@H]1C(=O)N[C@@H](C)C(=O)N[C@@H]([C@@H](C)CC)C(=O)N[C@@H]([C@@H](C)CC)C(=O)O[C@H]1C)[C@@H](C)CC | 0.25 µg/mL (≈ 0.197 µM) | < 0.0625 µg/mL | < 0.0625 µg/mL | < 0.0625 µg/mL | < 0.0625 µg/mL | 1 µg/mL (≈ 0.787 µM) | 1 µg/mL (≈ 0.787 µM) | 1 µg/mL (≈ 0.787 µM) | 1 µg/mL (≈ 0.787 µM) | 1 µg/mL (≈ 0.787 µM) | 1 µg/mL (≈ 0.787 µM) | 1 µg/mL (≈ 0.787 µM) | 0.125 µg/mL (≈ 0.0984 µM) | 0.25 µg/mL (≈ 0.197 µM) | 0.125 µg/mL (≈ 0.0984 µM) | 0.5 µg/mL (≈ 0.394 µM) | 0.125 µg/mL (≈ 0.0984 µM) | < 0.0625 µg/mL | 0.125 µg/mL (≈ 0.0984 µM) | < 0.0625 µg/mL
CC[C@@H](C)[C@@H](NC(=O)[C@@H](CCCNC(=N)N)NC(=O)[C@H](CCCNC(=N)N)NC(=O)[C@@H](NC(=O)[C@@H](Cc1ccccc1)NC)[C@@H](C)CC)C(=O)N[C@H](C(=O)N[C@@H](CO)C(=O)N[C@H]1C(=O)N[C@@H](CCCNC(=N)N)C(=O)N[C@@H](CC(C)C)C(=O)N[C@@H]([C@@H](C)CC)C(=O)O[C@H]1C)[C@@H](C)CC (H-[dNMeF]IR[dR][dI]IS[dT]RLI; ester 8-C) | 1 µg/mL (≈ 0.723 µM) | < 0.0625 µg/mL | 0.25 µg/mL (≈ 0.181 µM) | < 0.0625 µg/mL | < 0.0625 µg/mL | 2 µg/mL (≈ 1.45 µM) | 8 µg/mL (≈ 5.78 µM) | 4 µg/mL (≈ 2.89 µM) | 8 µg/mL (≈ 5.78 µM) | 4 µg/mL (≈ 2.89 µM) | 4 µg/mL (≈ 2.89 µM) | 2 µg/mL (≈ 1.45 µM) | 2 µg/mL (≈ 1.45 µM) | 2 µg/mL (≈ 1.45 µM) | 2 µg/mL (≈ 1.45 µM) | 1 µg/mL (≈ 0.723 µM) | 1 µg/mL (≈ 0.723 µM) | < 0.0625 µg/mL | 1 µg/mL (≈ 0.723 µM) | < 0.0625 µg/mL
CC[C@@H](C)[C@@H](NC(=O)[C@@H](CCCNC(=N)N)NC(=O)[C@H](CO)NC(=O)[C@@H](NC(=O)[C@@H](Cc1ccccc1)NC)[C@@H](C)CC)C(=O)N[C@H](C(=O)N[C@@H](CO)C(=O)N[C@H]1C(=O)N[C@@H](CCCNC(=N)N)C(=O)N[C@@H](CC(C)C)C(=O)N[C@@H]([C@@H](C)CC)C(=O)O[C@H]1C)[C@@H](C)CC (H-[dNMeF]IS[dR][dI]IS[dT]RLI; ester 8-C) | 1 µg/mL (≈ 0.761 µM) | < 0.0625 µg/mL | < 0.0625 µg/mL | < 0.0625 µg/mL | < 0.0625 µg/mL | 1 µg/mL (≈ 0.761 µM) | 1 µg/mL (≈ 0.761 µM) | 1 µg/mL (≈ 0.761 µM) | 1 µg/mL (≈ 0.761 µM) | 1 µg/mL (≈ 0.761 µM) | 1 µg/mL (≈ 0.761 µM) | 1 µg/mL (≈ 0.761 µM) | 1 µg/mL (≈ 0.761 µM) | 1 µg/mL (≈ 0.761 µM) | 0.5 µg/mL (≈ 0.38 µM) | 1 µg/mL (≈ 0.761 µM) | 0.5 µg/mL (≈ 0.38 µM) | < 0.0625 µg/mL | 1 µg/mL (≈ 0.761 µM) | < 0.0625 µg/mL
CC[C@@H](C)[C@@H](NC(=O)[C@@H](CCC(N)=O)NC(=O)[C@H](CO)NC(=O)[C@@H](NC(=O)[C@@H](Cc1ccccc1)NC)[C@@H](C)CC)C(=O)N[C@H](C(=O)N[C@@H](CO)C(=O)N[C@H]1C(=O)N[C@@H](CCCNC(=N)N)C(=O)N[C@@H](CC(C)C)C(=O)N[C@@H]([C@@H](C)CC)C(=O)O[C@H]1C)[C@@H](C)CC (H-[dNMeF]IS[dQ][dI]IS[dT]RLI; ester 8-C) | 0.125 µg/mL (≈ 0.0972 µM) | < 0.0625 µg/mL | < 0.0625 µg/mL | < 0.0625 µg/mL | < 0.0625 µg/mL | 0.5 µg/mL (≈ 0.389 µM) | 1 µg/mL (≈ 0.777 µM) | 0.25 µg/mL (≈ 0.194 µM) | 0.25 µg/mL (≈ 0.194 µM) | 0.5 µg/mL (≈ 0.389 µM) | 1 µg/mL (≈ 0.777 µM) | 0.5 µg/mL (≈ 0.389 µM) | < 0.0625 µg/mL | 0.25 µg/mL (≈ 0.194 µM) | 0.25 µg/mL (≈ 0.194 µM) | 0.5 µg/mL (≈ 0.389 µM) | 0.25 µg/mL (≈ 0.194 µM) | < 0.0625 µg/mL | 0.25 µg/mL (≈ 0.194 µM) | < 0.0625 µg/mL
